Reference: ChEMBL document CHEMBL1201862, “PubChem BioAssay data set” (2004)
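Assay format: 96-well plates, 48-hour exposure. GI50: concentration for 50% inhibition of growth.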 Calls of active or inactive are those of the source. Cut-off read from the data, not from the text of the source: active = GI50 up to about 1.1 µM and inactive = higher.

Legend:
Experiment in all cases: inhibition of tumour cell growth, NCI panel, 48 h
786-0 = system: 786-0
A498 = system: A498
A549 = system: A549
ACHN = system: ACHN
CAKI-1 = system: CAKI-1
CCRF-CEM = system: CCRF-CEM
COLO 205 = system: COLO 205
DLD-1 = system: DLD-1
DMS-114 = system: DMS-114
EKVX = system: EKVX
HCT-116 = system: HCT-116
HCT-15 = system: HCT-15
HOP-18 = system: HOP-18
HOP-62 = system: HOP-62
HOP-92 = system: HOP-92
HT-29 = system: HT-29
IGROV-1 = system: IGROV-1
K562 = system: K562
KM-20L2 = system: KM-20L2
KM12 = system: KM12
LOX IMVI = system: LOX IMVI
M19-MEL = system: M19-MEL
Malme-3M = system: Malme-3M
NCI-H23 = system: NCI-H23
NCI-H460 = system: NCI-H460
OVCAR-3 = system: OVCAR-3
OVCAR-4 = system: OVCAR-4
OVCAR-5 = system: OVCAR-5
OVCAR-8 = system: OVCAR-8
RPMI-8226 = system: RPMI-8226
RXF 393 = system: RXF 393
SF-268 = system: SF-268
SF-295 = system: SF-295
SF-539 = system: SF-539
SK-MEL-28 = system: SK-MEL-28
SK-MEL-2 = system: SK-MEL-2
SK-MEL-5 = system: SK-MEL-5
SN12C = system: SN12C
SNB-19 = system: SNB-19
SNB-75 = system: SNB-75
SNB-78 = system: SNB-78
SR = system: SR
SW-620 = system: SW-620
TK-10 = system: TK-10
U-251 = system: U-251
UACC-257 = system: UACC-257
UACC-62 = system: UACC-62
XF498 = system: XF498
DMS-273 = system: DMS-273
HCC 2998 = system: HCC 2998
HL-60 = system: HL-60
LXFL 529 = system: LXFL 529
M14 = system: M14
MOLT-4 = system: MOLT-4
NCI-H226 = system: NCI-H226
NCI-H522 = system: NCI-H522
SK-OV-3 = system: SK-OV-3

CCOC(=O)N1C(c2ccccc2)C=CC(c2ccccc2)N1C(=O)OCC (stereo not given)
GI50 (786-0): > 100 µM (inactive) | GI50 (A498): > 100 µM (inactive) | GI50 (A549): > 100 µM (inactive) | GI50 (ACHN): > 100 µM (inactive) | GI50 (CAKI-1): > 100 µM (inactive) | GI50 (CCRF-CEM): > 100 µM (inactive) | GI50 (COLO 205): > 100 µM (inactive) | GI50 (DLD-1): > 100 µM (inactive) | GI50 (DMS-114): > 100 µM (inactive) | GI50 (EKVX): > 100 µM (inactive) | GI50 (HCT-116): > 100 µM (inactive) | GI50 (HCT-15): > 100 µM | GI50 (HOP-18): > 100 µM (inactive) | GI50 (HOP-62): > 100 µM (inactive) | GI50 (HOP-92): > 100 µM (inactive) | GI50 (HT-29): > 100 µM (inactive) | GI50 (IGROV-1): > 100 µM (inactive) | GI50 (K562): > 100 µM (inactive) | GI50 (KM-20L2): > 100 µM (inactive) | GI50 (KM12): > 100 µM (inactive) | GI50 (LOX IMVI): > 100 µM (inactive) | GI50 (M19-MEL): > 100 µM (inactive) | GI50 (Malme-3M): > 100 µM (inactive) | GI50 (NCI-H23): > 100 µM (inactive) | GI50 (NCI-H460): > 100 µM (inactive) | GI50 (OVCAR-3): > 100 µM (inactive) | GI50 (OVCAR-4): > 100 µM (inactive) | GI50 (OVCAR-5): > 100 µM (inactive) | GI50 (OVCAR-8): > 100 µM (inactive) | GI50 (RPMI-8226): > 100 µM (inactive) | GI50 (RXF 393): > 100 µM (inactive) | GI50 (SF-268): > 100 µM (inactive) | GI50 (SF-295): > 100 µM (inactive) | GI50 (SF-539): > 100 µM (inactive) | GI50 (SK-MEL-28): > 100 µM (inactive) | GI50 (SK-MEL-2): > 100 µM (inactive) | GI50 (SK-MEL-5): > 100 µM (inactive) | GI50 (SN12C): > 100 µM (inactive) | GI50 (SNB-19): > 100 µM (inactive) | GI50 (SNB-75): 42.9 µM (inactive) | GI50 (SNB-78): > 100 µM (inactive) | GI50 (SR): > 100 µM (inactive) | GI50 (SW-620): > 100 µM (inactive) | GI50 (TK-10): > 100 µM (inactive) | GI50 (U-251): > 100 µM (inactive) | GI50 (UACC-257): > 100 µM (inactive) | GI50 (UACC-62): > 100 µM (inactive) | GI50 (XF498): > 100 µM (inactive)

NC(=O)CCCC(NCc1c2ccccc2nc2ccccc12)C(=O)O (stereo not given)
GI50 (786-0): 42.7 µM (inactive) | GI50 (A549): 56.1 µM (inactive) | GI50 (ACHN): 49.8 µM (inactive) | GI50 (CAKI-1): 27.5 µM (inactive) | GI50 (CCRF-CEM): 22.2 µM (inactive) | GI50 (COLO 205): 56.4 µM (inactive) | GI50 (DLD-1): 35.4 µM (inactive) | GI50 (DMS-114): 37.2 µM (inactive) | GI50 (DMS-273): 28.2 µM (inactive) | GI50 (EKVX): 56.6 µM (inactive) | GI50 (HCC 2998): 50.9 µM (inactive) | GI50 (HCT-116): > 10 µM (inactive) | GI50 (HCT-15): 36.5 µM | GI50 (HL-60): 20.5 µM (inactive) | GI50 (HOP-62): > 100 µM (inactive) | GI50 (HOP-92): 27.5 µM (inactive) | GI50 (HT-29): 36.2 µM (inactive) | GI50 (IGROV-1): 48.5 µM (inactive) | GI50 (K562): 26.6 µM (inactive) | GI50 (KM-20L2): 43.5 µM (inactive) | GI50 (KM12): 29.2 µM (inactive) | GI50 (LOX IMVI): 30.4 µM (inactive) | GI50 (LXFL 529): 39.9 µM (inactive) | GI50 (M14): 42.4 µM (inactive) | GI50 (M19-MEL): 45.2 µM (inactive) | GI50 (MOLT-4): 17.9 µM (inactive) | GI50 (Malme-3M): 77.1 µM (inactive) | GI50 (NCI-H226): > 100 µM (inactive) | GI50 (NCI-H23): 53.1 µM (inactive) | GI50 (NCI-H460): 39.5 µM (inactive) | GI50 (NCI-H522): 22.6 µM (inactive) | GI50 (OVCAR-3): 37.9 µM (inactive) | GI50 (OVCAR-4): 11.1 µM (inactive) | GI50 (OVCAR-5): > 100 µM (inactive) | GI50 (OVCAR-8): 42.7 µM (inactive) | GI50 (RPMI-8226): 22.8 µM (inactive) | GI50 (RXF 393): 51.8 µM (inactive) | GI50 (SF-268): 41.6 µM (inactive) | GI50 (SF-295): 83.4 µM (inactive) | GI50 (SF-539): 32.7 µM (inactive) | GI50 (SK-MEL-28): > 100 µM (inactive) | GI50 (SK-MEL-2): 90.6 µM (inactive) | GI50 (SK-MEL-5): 94.6 µM (inactive) | GI50 (SK-OV-3): > 100 µM (inactive) | GI50 (SN12C): 41.5 µM (inactive) | GI50 (SNB-75): 58.2 µM (inactive) | GI50 (SR): 25.9 µM (inactive) | GI50 (SW-620): 50.9 µM (inactive) | GI50 (TK-10): 55 µM (inactive) | GI50 (U-251): > 100 µM (inactive) | GI50 (UACC-257): 85.1 µM (inactive) | GI50 (XF498): 21 µM (inactive)
